In patent US5182300A, “Furosemide salts” (Roussel Uclaf, priority 1989, dated 1993):
Structures can show the parent of a compound that is named as a salt.

Key:
[1] = system: atopic asthmatic patients; settings: aerosol; bronchospasms induced by physical exercises, ultrasonic fogs and immunological stimulations; 10 mg/ml sodium salt solution inhaled for 15 to 20 minutes; cited from earlier work
[2] = initial measurement of the pH of the solution; format: physicochemical

| SMILES | prevention of bronchospasms [1] | pH (initial measurement) ([2]; Sol. 1, water, 97.2 mg/ml) | pH (initial measurement) ([2]; Sol. 2, physiol. sol., 184.4 mg/ml) | pH (initial measurement) ([2]; Sol. 3, water, 275.3 mg/ml) | pH (initial measurement) ([2]; Sol. 4, water, 125.0 mg/ml, kept at 60° C.) | pH (initial measurement) ([2]; Sol. 5, water, 125.0 mg/ml, kept at 25° C. away from the light) | pH (initial measurement) ([2]; Sol. 6, water, 90.4 mg/ml) | pH (initial measurement) ([2]; Sol. 7, water containing 4% by weight of mannitol, 72.1 mg/ml) |
| --- | --- | --- | --- | --- | --- | --- | --- | --- |
| NS(=O)(=O)c1cc(C(=O)O)c(NCc2ccco2)cc1Cl [furosemide, 4-chloro-N-furyl-5-sulfamoyl-anthranylic acid] | prevent bronchospasms | – | – | – | – | – | – | – |
| NS(=O)(=O)c1cc(C(=O)O)c(NCc2ccco2)cc1Cl [furosemide salt of L-lysine, L-lysine salt of furosemide] | – | 7.00 | 7.09 | 7.32 | 7.06 | 7.06 | 6.95 | 7.06 |
